# Reference: patent US8946299B2, “Use of calixarenes associated with an antibiotic in the treatment of bacterial infections” (Universite de Lorraine, priority 2011, dated 2015)
# Where “and” joins values, the source holds several entries; their conditions need not be identical. Identical values can stand only once.
# What was measured:
# [1] = test system: EcR1: Penicillinase-Producing Escherichia coli without Associated Resistance; assay: Antibiogram by the disk diffusion technique; assay type: cell-based; conditions: for Results (diameter): Table A1, category from diameter vs Dmin Dmax; for diameter in mm: Table A2, diameter
# Procedure: (§1) 5. Identification and Antibiogram 5.1 EcR1: Penicillinase-Producing Escherichia coli without Associated Resistance
# (§2) The bacterial and antibiogram identification is carried out by the VITEK 2 system (bioMérieux) and by the disk diffusion technique.
# [2] = test system: ESBL-producing strain of Escherichia coli (EcR3); assay: Chessboard technique: MICs alone and synergism of Cx1 combinations; assay type: cell-based; conditions: n = 4; for Initial MICs (antibiotic): antibiotic used alone, second figure of the cell
# From the text: (§3) Three reference strains were used, corresponding to those studied for the MICs and MBCs (Minimum Bactericidal Concentration): Escherichia coli ATCC 25922, Staphylococcus aureus ATCC 29213, Pseudomonas aeruginosa ATCC 27853. For each of these strains 3 corresponding clinical isolates were chosen, having various antibiotic-resistance profiles, routinely used in standard fashion: • EcR1, EcR2, EcR3; • SaR1, SaR3, SaR4; • PaR2, PaR3, PaR5.
# (§4) 1.3. Procedure: Chessboard Technique
# (§5) The bacterial suspension is transferred to a 15 mL Falcon tube, centrifuged for 10 min at 4500 g, then the pellet is re-suspended in 1 mL of sterile distilled water. Suitable dilutions are then prepared in order to obtain a bacterial inoculum between 5·10^5 and 5·10^6 CFU/mL.
# (§6) The MICs of the antibiotics were previously determined for each strain, by the method of microdilution in a liquid medium (CLSI (Clinical and Laboratory Standards Institute), 2003).
# (§7) The same procedure is followed for the Cx1. […] Thus 64 ATB/Cx1 combinations are obtained.
# (§8) The final volume contained in each of the wells must be 100 μL. Two controls must be present on each plate: • column 1 and 12: medium control • column 2 and 11: medium+bacteria control
# (§9) Cx1: […] in the wells of […], starting with the lowest concentration.
# (§10) ATB: 25 μL in the wells of rows H to A (columns 3 to 11), starting with the lowest concentration.
# (§11) 50 μL in each of the wells of columns 2 to 11.
# (§12) D2: Reading the Turbidity at 540 Nm.
# (§13) The FIC (Fractional Inhibitory Concentration Index) value is determined by the following formula:
# (§14) [formula] MICA in combination MICA alone MICB in combination MICB alone
# (§15) When FIC≦0.5, there is a synergistic effect between antibiotic A and antibiotic B.
# (§16) When 0.5<FIC≦1, there is an additive effect between antibiotic A and antibiotic B.
# (§17) When 1<FIC≦4, there is an indifferent effect between antibiotic A and antibiotic B.
# (§18) When FIC>4, there is an antagonistic effect between antibiotic A and antibiotic B.
# (§19) For each strain and each antibiotic/Cx1 combination, the experiments were repeated a minimum of 3 times.
# [3] = test system: Staphylococcus aureus strain ATCC 29213 (wild type); assay: as above; assay type: cell-based; conditions: for Initials MIC (antibiotic): antibiotic used alone, second figure of the cell
# From the text: as §3, §4, §5, §6, §7, §8, §9, §10, §11, §12, §13, §14, §15, §16, §17, §18, §19
# [4] = test system: Pseudomonas aeruginosa strain having a resistance to β-lactams (including the carbapenems), aminoglycosides, the trimethoprim-sulphamethoxazole combination and …; assay: as above; assay type: cell-based; conditions: n = 4; for MIC (antibiotic): antibiotic used alone, second figure of the cell
# From the text: as §3, §4, §5, §6, §7, §8, §9, §10, §11, §12, §13, §14, §15, §16, §17, §18, §19
# [5] = test system: mucoid strain of Pseudomonas aeruginosa having a resistance to rifampicin and the trimethoprim-sulphamethoxazole combination (PaR5); assay: as above; assay type: cell-based; conditions: n = 4; for MIC (antibiotic): antibiotic used alone, second figure of the cell
# From the text: as §3, §4, §5, §6, §7, §8, §9, §10, §11, §12, §13, §14, §15, §16, §17, §18, §19
# [6] = test system: Pseudomonas aeruginosa strain ATCC 27853 (wild type); assay: as above; assay type: cell-based; conditions: for MIC (antibiotic): antibiotic used alone, second figure of the cell
# From the text: as §3, §4, §5, §6, §7, §8, §9, §10, §11, §12, §13, §14, §15, §16, §17, §18, §19
# [7] = test system: EcR1: Penicillinase-Producing Escherichia coli without Associated Resistance; assay: Antibiogram, MIC by the VITEK 2 system; assay type: cell-based; conditions: Table A1, category from MIC
# Procedure: as §1, §2
# [8] = test system: Pseudomonas aeruginosa strain having a resistance to β-lactams, the trimethoprim-sulphamethoxazole combination and fosfomycin (PaR2); assay type: cell-based; conditions: n = 4; for MIC (antibiotic): antibiotic used alone, second figure of the cell
# From the text: as §3, §4, §5, §6, §7, §8, §9, §10, §11, §12, §13, §14, §15, §16, §17, §18, §19
# [9] = test system: Escherichia coli, Staphylococcus aureus and Pseudomonas aeruginosa strains; assay: Chessboard technique, summary over all strains and combinations tested; assay type: cell-based
# From the text: as §3, §4
# The FIC (Fractional Inhibitory Concentration Index) value is determined by the following formula: […]
# as §19
# [10] = test system: MRSA strain having a resistance to the aminoglycosides, fluoroquinolones, macrolides-lincosamides-synergistins and ofloxacin (SaR4); assay: Chessboard technique: MICs alone and synergism of Cx1 combinations; assay type: cell-based, Staphylococcus aureus; conditions: n = 4; for MIC (antibiotic): antibiotic used alone, second figure of the cell
# From the text: as §3, §4, §5, §6, §7, §8, §9, §10, §11, §12, §13, §14, §15, §16, §17, §18, §19
# [11] = test system: MRSA strain without associated resistance (SaR1); assay: as above; assay type: cell-based, Staphylococcus aureus; conditions: n = 4; for MIC (antibiotic): antibiotic used alone, second figure of the cell
# From the text: as §3, §4, §5, §6, §7, §8, §9, §10, §11, §12, §13, §14, §15, §16, §17, §18, §19
# [12] = test system: MRSA strain having a resistance to the aminoglycosides and fluoroquinolones (SaR3); assay: as above; assay type: cell-based, Staphylococcus aureus; conditions: n = 4; for MIC (antibiotic): antibiotic used alone, second figure of the cell
# From the text: as §3, §4, §5, §6, §7, §8, §9, §10, §11, §12, §13, §14, §15, §16, §17, §18, §19
# [13] = test system: EcR2: Cephalosporinase-Hyperproducing Escherichia coli; assay: Antibiogram by the disk diffusion technique; assay type: cell-based; conditions: Table B2; strain EcR2; diameters
# Procedure: 5.2 EcR2: Cephalosporinase-Hyperproducing Escherichia coli Having an Associated Resistance to the Aminoglycosides, Quinolones and the Trimethoprim-Sulphamethoxazole Combination
# The bacterial and antibiogram identification is carried out by the VITEK 1 system (bioMérieux) and by the disk diffusion technique
# [14] = test system: cephalosporinase-hyperproducing strain of Escherichia coli (EcR2); assay: Chessboard technique: MICs alone and synergism of Cx1 combinations; assay type: cell-based; conditions: n = 4
# From the text: as §3, §4, §5, §6, §7, §8, §9, §10, §11, §12, §13, §14, §15, §16, §17, §18, §19
# [15] = test system: penicillinase-producing strain of Escherichia coli without associated resistance (EcR1); assay: as above; assay type: cell-based; conditions: Cx1 used alone; first figure of the cell; n = 4
# From the text: as §3, §4, §5, §6, §7, §8, §9, §10, §11, §12, §13, §14, §15, §16, §17, §18, §19
# [16] = test system: Escherichia coli strain ATCC 25922 (wild type); assay: as above; assay type: cell-based
# From the text: as §3, §4, §5, §6, §7, §8, §9, §10, §11, §12, §13, §14, §15, §16, §17, §18, §19
# [17] = Cx1 used alone, first figure of the cell
# [18] = Cx1 used alone, first figure of the cell, n = 4
compound,measurement,setting,value
NCC[C@H](O)C(=O)N[C@@H]1C[C@H](N)[C@@H](O[C@H]2O[C@H](CN)[C@@H](O)[C@H](O)[C@H]2O)[C@H](O)[C@H]1O[C@H]1O[C@H](CO)[C@@H](O)[C@H](N)[C@H]1O [Amikacin],Results (diameter),[1],Susceptible
same,Initial MICs (antibiotic),[2],1 mg/L
same,Initials MIC (antibiotic),[3]; n = 4,1 mg/L
same,MIC (antibiotic),[4],1 mg/L
same,MIC (antibiotic),[5],0.5 mg/L
same,MIC (antibiotic),[6]; n = 4,0.5 mg/L
same,Results (MIC),[7],Susceptible
same,MIC (antibiotic),[8],1 mg/L
[H]/N=C(/N)N[C@H]1[C@H](O)[C@@H](O)[C@H](O[C@@H]2O[C@@H](C)[C@](O)(C=O)[C@H]2O[C@@H]2O[C@@H](CO)[C@H](O)[C@@H](O)[C@@H]2NC)[C@@H](N/C(N)=N\[H])[C@@H]1O [Streptomycin],nature of the interaction between Cx1 and the antibiotic,[9],synergism
same,Initials MIC (antibiotic),[3]; n = 4,4 mg/L
same,MIC (antibiotic),[10],4 mg/L
same,MIC (antibiotic),[11],4 mg/L
same,MIC (antibiotic),[12],4 mg/L
CO/N=C(\C(=O)N[C@@H]1C(=O)N2C(C(=O)O)=C(COC(C)=O)CS[C@H]12)c1csc(N)n1 [Cefotaxime],diameter in mm,[13],24 mm
same,Results (diameter),[1],Susceptible
same,Initial MICs (antibiotic),[2],128 mg/L
same,Initial MICs (antibiotic),"[14]; antibiotic used alone, second figure of the cell",4 mg/L
same,Results (MIC),[7],Susceptible
CCn1cc(C(=O)O)c(=O)c2cc(F)c(N3CCNCC3)cc21 [Norfloxacin],Results (MIC),[7],Susceptible
CC1(C)S[C@@H]2[C@H](NC(=O)[C@H](C(=O)O)c3ccsc3)C(=O)N2[C@H]1C(=O)O [Ticarcillin],Results (diameter),[1],Resistant
same,Results (MIC),[7],Resistant
C[C@@H]1O[C@@H]1P(=O)(O)O [Fosfomycin],nature of the interaction between Cx1 and the antibiotic,[9],synergism
same,Results (diameter),[1],Susceptible
same,diameter in mm,[1],24 mm
same,Initials MIC (antibiotic),[3]; n = 4,8/8 mg/L
same,MIC (antibiotic),[4],> 64 mg/L
same,MIC (antibiotic),[5],16 mg/L
same,MIC (antibiotic),[6]; n = 4,16 mg/L
same,MIC (antibiotic),[10],128 mg/L
same,MIC (antibiotic),[11],2 mg/L
same,MIC (antibiotic),[12],16 mg/L
same,MIC (antibiotic),[8],64 mg/L
CN(C)c1ccc(O)c2c1C[C@H]1C[C@H]3[C@H](N(C)C)C(O)=C(C(N)=O)C(=O)[C@@]3(O)C(O)=C1C2=O [Minocycline],diameter in mm,[1],20 mm
CO/N=C(\C(=O)N[C@@H]1C(=O)N2C(C(=O)[O-])=C(C[N+]3(C)CCCC3)CS[C@H]12)c1csc(N)n1 [Cefepime],Results (diameter),[1],Susceptible
same,diameter in mm,[1],27 mm
C[C@@H](O)[C@H]1C(=O)N2C(C(=O)O)=C(SCCN=CN)C[C@H]12 [Imipenem],MIC (antibiotic),[4],32/32 mg/L
same,MIC (antibiotic),[5],2 mg/L
same,MIC (antibiotic),[6]; n = 4,2 mg/L
same,MIC (antibiotic),[10],2 mg/L
same,MIC (antibiotic),[8],2 mg/L
para-guanidinoethylcalix[4]arene [Cx1],Initial MICs (Cx1),[2]; [17],2 mg/L and 2/2 mg/L
same,Initial MICs (Cx1),"[3]; Cx1 alone, S. aureus ATCC 29213",8 mg/L
same,Initials MIC (Cx1),[3]; [18],8 mg/L and 8/8 mg/L
same,MIC (Cx1),[4]; [17],32 mg/L and 32/32 mg/L
same,MIC (Cx1),[5]; [17],32/32 mg/L and 32 mg/L
same,Initial MICs (Cx1),[14]; [17],2 mg/L and 2/2 mg/L
same,Initial MICs (Cx1),"[6]; Cx1 alone, P. aeruginosa ATCC 27853",32/32 mg/L and 32 mg/L
same,MIC (Cx1),[6]; [18],32 mg/L
same,Initial MICs (Cx1),[15],2 mg/L
same,Initial MICs (Cx1),"[16]; Cx1 alone, E. coli ATCC 25922",4 mg/L
same,Initial MICs (Cx1),[16]; [18],4 mg/L and 2 mg/L and 4/4 mg/L
same,MIC (Cx1),[10]; [17],8 mg/L
same,MIC (Cx1),[11]; [17],8 mg/L
same,MIC (Cx1),[12]; [17],8 mg/L and 8/8 mg/L
same,MIC (Cx1),[8]; [17],32 mg/L
CC(=O)O[C@H]1C[C@@]2(C)[C@@H](C[C@@H](O)[C@H]3[C@@]4(C)CC[C@@H](O)[C@@H](C)[C@@H]4CC[C@@]32C)/C1=C(\CCC=C(C)C)C(=O)O [Fusidic acid],nature of the interaction between Cx1 and the antibiotic,[9],synergism
same,Initials MIC (antibiotic),[3]; n = 4,2 mg/L
same,MIC (antibiotic),[10],4 mg/L
C[C@H]1[C@H](NC(=O)/C(=N\OC(C)(C)C(=O)O)c2csc(N)n2)C(=O)N1S(=O)(=O)O [Aztreonam],Results (diameter),[1],Susceptible
same,diameter in mm,[1],28 mm
